Data: patent US4464367A, “Cephalosporin derivatives, process for preparation thereof and drugs containing said derivatives usable as antibiotics” (Sanofi, priority 1980, dated 1984)
In brackets after ≈: the same amount, converted by molar mass. Where a name gives a salt, the structure may show the parent alone. Read-outs that look alike come from different tables or passages of the source.

Legend:
[1] = system: Escherichia coli A 223; assay: in vitro bacteriostatic action, solid medium, dilutions method; type: cell-based; conditions: A223, not producing lactamases, read-out: minimum inhibitor concentration (MIC)
Protocol: (§1) The in vitro bacteriostatic action was determined in a solid medium by the dilutions method. The study was directed to Gram^+ and Gram^- strains of which several are known for producing β lactamases.
(§2) The results are expressed in the minimum inhibitor concentrations (MIC--μg/ml).

[2] = system: Escherichia coli R 69/2 TEM; assay: as above; type: cell-based; conditions: R69/2TEM, read-out: minimum inhibitor concentration (MIC)
Protocol: as §1, §2

[3] = system: Escherichia coli SOL RL 90; assay: as above; type: cell-based; conditions: SOLRL90, producing lactamases, read-out: minimum inhibitor concentration (MIC)
Protocol: as §1, §2

[4] = system: Klebsiella pneumoniae IP E 55; assay: as above; type: cell-based; conditions: IPE55, not producing lactamases, read-out: minimum inhibitor concentration (MIC)
Protocol: as §1, §2

[5] = system: Klebsiella pneumoniae RO 30; assay: as above; type: cell-based; conditions: RO30, producing lactamases, read-out: minimum inhibitor concentration (MIC)
Protocol: as §1, §2

[6] = system: Staphylococcus aureus Smith; assay: as above; type: cell-based; conditions: not producing lactamases, read-out: minimum inhibitor concentration (MIC)
Protocol: as §1, §2

[7] = system: Escherichia coli SOL RL 90; assay: therapeutic efficacy in septicaemia provoked in the mouse by Escherichia coli SOL RL 90; type: in vivo; conditions: SOLRL90, sc, 96 h, read-out: DE 50 (median effective dose, ED 50)
Protocol: The therapeutic efficacy of the products is determined in the septicaemic model of the mouse.
Septicaemia is provoked by intraperitoneal inoculation of 0.5 ml of an appropriate dilution of suspension of the strain E.coli Sol. RL 90 producing cephalosporinase.
The products are administered in solution in a phosphate buffer pH 7.0 in a volume of 0.2 ml by the sub-cutaneous route and at a rate of 5 doses (mg of product per kg of live weight of mouse) to batches of 10 mice 1 hour and 5 hours after inoculation of the germ.
After 4 days of observation during which the mortality is noted, the median effective doses (ED 50) are calculated by the Muench and Reed method.

[8] = solubility in a buffer solution; type: physicochemical; conditions: pH 7, aqueous buffer; buffer solution having a pH of 7
Excerpt: The pharmaceutical compositions are made from compounds (I) in their acid form or, when their solubility is insufficient, in the form of a salt.

Structure (SMILES)	MIC [1] [µg/mL]	MIC [2] [µg/mL]	MIC [3] [µg/mL]	MIC [4] [µg/mL]	MIC [5] [µg/mL]	MIC [6] [µg/mL]	ED50 ([7]; mouse septicaemia, sub-cutaneous, 1 hour and 5 hours after inoculation, 4 days of observation, Muench and Reed method) [mg/kg]	solubility [8] [mg/mL]	ED50 [7] [mg/kg]
CO/N=C(\C(=O)NC1C(=O)N2C(C(=O)O)=C(CSC(=O)c3ccco3)CSC12)c1csc(N)n1 (stereo not drawn) [31 916, Syn isomer [(amino-2 thiazolyl-4)-2 methoxyimino-2 acetamido]-7 (furyl-2 carbonylthiomethyl)-3 cepheme-3 4-carboxylic acid]	0.5 (≈ 0.955 µM)	0.25 (≈ 0.477 µM)	2 (≈ 3.82 µM)	1 (≈ 1.91 µM)	8 (≈ 15.3 µM)	0.25 (≈ 0.477 µM)	5.4		
CO/N=C(\C(=O)NC1C(=O)N2C(C(=O)O)=C(CSC(=O)c3ccco3)CSC12)c1csc(N)n1 (stereo not drawn) [sodium salt of compound CM 31916]								> 200	
CO/N=C(\C(=O)NC1C(=O)N2C(C(=O)O)=C(CSC(=O)c3cccs3)CSC12)c1csc(N)n1 (stereo not drawn) [31 917, syn isomer [(amino-2 thiazolyl-4)-2 methoxyimino-2 acetamido]-7 (thienyl-2 carbonylthiomethyl)-3 cepheme-3 4-carboxylic acid]	0.5 (≈ 0.927 µM)	0.5 (≈ 0.927 µM)	2 (≈ 3.71 µM)	1 (≈ 1.85 µM)	8 (≈ 14.8 µM)	0.25 (≈ 0.463 µM)			3.6
